The record followed here is patent US7652047B2, “Phenylamino isothiazole carboxamidines as MEK inhibitors” (Ardea Biosciences, Inc., priority 2005, dated 2010).

pIC50: −log10 of the molar value.

T1 sequence (Q02750 whole entry S218D/S222D): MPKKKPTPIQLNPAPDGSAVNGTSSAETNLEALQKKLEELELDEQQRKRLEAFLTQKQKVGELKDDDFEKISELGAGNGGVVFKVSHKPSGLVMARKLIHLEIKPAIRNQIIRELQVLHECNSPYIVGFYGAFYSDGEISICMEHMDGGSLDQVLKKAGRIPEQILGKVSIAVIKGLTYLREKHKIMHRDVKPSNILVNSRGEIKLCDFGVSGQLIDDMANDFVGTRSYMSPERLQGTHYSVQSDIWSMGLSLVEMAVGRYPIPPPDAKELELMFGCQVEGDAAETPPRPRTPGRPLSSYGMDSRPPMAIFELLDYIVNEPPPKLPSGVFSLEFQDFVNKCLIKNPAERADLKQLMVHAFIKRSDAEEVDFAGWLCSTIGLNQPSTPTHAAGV

This test addresses T1, MEK1^CA (human GST-MEK1, constitutively active, Ser218Asp and Ser222Asp) (Homo sapiens, UniProt Q02750, S218D/S222D).
T1 construct: GST; made in house; host or cells: Escherichia coli
Put plainly: MEK1 enzymatic activity assay (MEK1^CA / ERK2 / MBP, [γ-33P]ATP incorporation). It is filed as biochemical. Conditions: Table 1, compounds of formula I; read-out: Avg IC50. The essentials: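 Cascade assay: 25 µl reactions with 0.002 nmol E. coli-expressed GST-MEK1 S218D/S222D, 0.02 nmol His-tagged mouse ERK2, 0.25 nmol MBP, 0.25 nmol unlabeled ATP and 0.1 µCi [γ-33P]ATP. Compound preincubated 30 min at ambient temperature with MEK1/ERK2; stopped with TCA, 33P-labelled protein filter-captured and scintillation-counted.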
In the case of `CCC(CO)NC(=N)c1c(O)nsc1Nc1ccc(Oc2cc(F)cc(F)c2)cc1C` (stereo not drawn) [compound 468], the pIC50 is 7.00 to 9.00. Turning to `CC[C@H](CO)NC(=N)c1c(O)nsc1Nc1ccc(Oc2cc(F)cc(F)c2)cc1C` [compound 469], the pIC50 is 7.00 to 9.00.

Turning to `COCCNC(=N)c1c(O)nsc1Nc1ccc(Oc2cc(F)cc(F)c2)cc1C` [compound 470], the pIC50 is 7.00 to 9.00. Take `Cc1cc(Oc2cccc(C(F)(F)F)c2)ccc1Nc1snc(O)c1C(=N)NO` [compound 471]: the pIC50 is < 6.30. In the case of `Cc1cc(Oc2cccc(C(F)(F)F)c2)ccc1Nc1snc(O)c1C(=N)NCC(O)CO` (stereo not drawn) [compound 472] it was 7.00 to 9.00. In the case of `CCC(CO)NC(=N)c1c(O)nsc1Nc1ccc(Oc2cccc(C(F)(F)F)c2)cc1C` (stereo not drawn) [compound 473], the pIC50 was 7.00 to 9.00. For `CC[C@H](CO)NC(=N)c1c(O)nsc1Nc1ccc(Oc2cccc(C(F)(F)F)c2)cc1C` [compound 474] the value was 7.00 to 9.00.

For the molecule `CC(C)NC(=N)c1c(O)nsc1Nc1cc(F)c(Oc2cc(Cl)ccc2Cl)cc1F` [compound 475], the pIC50 is 7.00 to 9.00. In the case of `CC(CO)NC(=N)c1c(O)nsc1Nc1cc(F)c(Oc2cc(Cl)ccc2Cl)cc1F` (stereo not drawn) [compound 476] it was 7.00 to 9.00. As for `N=C(NCC(O)CO)c1c(O)nsc1Nc1cc(F)c(Oc2cc(Cl)ccc2Cl)cc1F` (stereo not drawn) [compound 477], the pIC50 is 7.00 to 9.00. Turning to `CC(O)CNC(=N)c1c(O)nsc1Nc1cc(F)c(Oc2cc(Cl)ccc2Cl)cc1F` (stereo not drawn) [compound 478], the pIC50 is 7.00 to 9.00.

With `COC(=O)c1cccc(Nc2snc(O)c2C(=N)NC(C)C)c1C` [compound 479], the negative-log IC50 (pIC50) was < 6.30.

Consider `CCOC(=O)c1ccc(Oc2ccc(Nc3snc(O)c3C(=N)NC(C)C)cc2)cc1` [compound 485], for which the pIC50 was 6.30 to 7.00. In the case of `CC(C)NC(=N)c1c(O)nsc1Nc1ccc(Oc2ccc(S(C)(=O)=O)cc2)cc1` [compound 486] it was < 6.30; in that of `COC(=O)c1ccccc1Oc1ccc(Nc2snc(O)c2C(=N)NC(C)C)cc1` [compound 487], 7.00 to 9.00; in that of `CCOC(=O)c1cccc(Nc2snc(O)c2C(=N)NC(C)C)c1` [compound 488], < 6.30. With `CCOC(=O)c1cccc(Nc2snc(O)c2C(=N)NC(C)CO)c1` (stereo not drawn) [compound 489], the pIC50 was < 6.30. Take `COC(=O)c1cccc(Nc2snc(O)c2C(=N)NC(C)CO)c1C` (stereo not drawn) [compound 490]: the pIC50 was 6.30 to 7.00. For `CC(CO)NC(=N)c1c(O)nsc1Nc1ccc(Oc2ccc(S(C)(=O)=O)cc2)cc1` (stereo not drawn) [compound 491] the value was < 6.30.

For `Cc1cc(Oc2cccc(C(F)(F)F)c2)ccc1Nc1snc(O)c1C(=N)NC(CO)C(C)C` (stereo not drawn) [compound 492], the pIC50 is 6.30 to 7.00. In the case of `COC(=O)c1ccccc1Oc1ccc(Nc2snc(O)c2C(=N)NC(C)CO)cc1` (stereo not drawn) [compound 493] it was 7.00 to 9.00. In the case of `CCOC(=O)c1ccccc1Oc1ccc(Nc2snc(O)c2C(=N)NC(C)CO)cc1` (stereo not drawn) [compound 494] it was 7.00 to 9.00. For `COC(=O)c1cccc(Nc2snc(O)c2C(=N)NCC(C)O)c1C` (stereo not drawn) [compound 495] the value was < 6.30; for `CCOC(=O)c1cccc(Nc2snc(O)c2C(=N)NCC(C)O)c1` (stereo not drawn) [compound 496], < 6.30; for `CCOC(=O)c1ccc(Oc2ccc(Nc3snc(O)c3C(=N)NC(C)CO)cc2)cc1` (stereo not drawn) [compound 497], 7.00 to 9.00. `CCOC(=O)c1cccc(Nc2snc(O)c2C(=N)NCC(O)O)c1` [compound 498]: the pIC50 is 6.30 to 7.00. Turning to `COC(=O)c1cccc(Nc2snc(O)c2C(=N)NCC(O)O)c1C` [compound 499], the pIC50 was 6.30 to 7.00. As to `Cc1cc(Oc2cccc(F)c2F)ccc1Nc1snc(O)c1C(=N)NO` [compound 500], the pIC50 is 7.00 to 9.00. Take `Cc1cc(Oc2cccc(F)c2F)ccc1Nc1snc(O)c1C(=N)N(O)C(C)C` [compound 501]: the pIC50 was 6.30 to 7.00. Regarding `COCC(C)NC(=N)c1c(O)nsc1Nc1ccc(Oc2cccc(F)c2F)cc1C` (stereo not drawn) [compound 502], the pIC50 is 7.00 to 9.00.
